From patent US20250145628A1, “PYRAZOLOPYRIMIDINES, COMPOSITIONS COMPRISING THEM AND USES THEREOF” (Novo Nordisk A/S, priority 2022, published 2025) come the findings set out here.

Some results are limits rather than exact numbers.

Assay [1] deals with T1, human CB1 receptor (Homo sapiens, UniProt P21554).
T1 construct: expressed in transfected cells; host or cells: HEK293
Put plainly: bioSensAll GAPL-Gi2 BRET biosensor assay (antagonism of CP-55,940). To be noted: HEK293 cells transfected with hCB1 and GAPL-Gi2 biosensor, EC75 of CP-55,940 (0.1 nM), overnight incubation, read-out: CB1 wt Gi2 IC50. The class given is cell-based. The gist of the method:
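HEK293 cells transiently co-transfected with hCB1 and GAPL-Gi2 BRET biosensor; ~48 h later, in HBSS, 12 compound doses ([…]) added 3–5 min before CP-55,940 at EC75 (0.1 nM). BRET ratio 515/400 nm with coelenterazine, standardized to uBRET; four-parameter logistic fit.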

The target of assay [2] is T1, human CB1 receptor. Description: bioSensAll β-arrestin plasma membrane translocation BRET biosensor (+GRK2) assay (antagonism of CP-55,940). In kind it is cell-based. The following applies: HEK293 cells transfected with hCB1 and β-arrestin PM translocation biosensor (+GRK2), EC75 of CP-55,940 (100 nM), overnight incubation, read-out: CB1 wt βarr2 IC50. The gist of the method:
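HEK293 cells co-transfected with hCB1 and β-arrestin plasma-membrane translocation BRET biosensor plus GRK2, tested ~48 h later in HBSS. Compounds (12 doses, 0–600 nM) added 3–5 min before CP-55,940 at EC75 of 100 nM. uBRET ratio (515/400 nm) fitted by four-parameter logistic regression.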
(BRET reads energy transfer from a luciferase to a nearby fluorophore.)

T1 sequence (P21554 whole entry): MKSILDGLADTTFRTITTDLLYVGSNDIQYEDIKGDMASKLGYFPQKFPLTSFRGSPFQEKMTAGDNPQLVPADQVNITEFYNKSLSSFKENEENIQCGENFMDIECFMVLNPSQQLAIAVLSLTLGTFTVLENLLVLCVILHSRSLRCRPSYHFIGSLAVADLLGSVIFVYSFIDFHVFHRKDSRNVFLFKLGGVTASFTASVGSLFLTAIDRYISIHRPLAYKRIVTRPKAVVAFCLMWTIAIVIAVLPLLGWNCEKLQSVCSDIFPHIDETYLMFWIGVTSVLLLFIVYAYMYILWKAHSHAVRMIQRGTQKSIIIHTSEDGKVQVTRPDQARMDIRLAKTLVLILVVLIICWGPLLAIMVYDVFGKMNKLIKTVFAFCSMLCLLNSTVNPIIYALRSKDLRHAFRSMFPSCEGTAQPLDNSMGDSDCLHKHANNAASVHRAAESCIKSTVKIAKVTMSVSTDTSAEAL

For orientation: IC50 means the concentration at which inhibition is half-maximal. In the case of `CN(CC(C)(C)O)c1cc(-c2ccc(C(F)(F)F)nc2)n2nc(-c3ccc(C(N)=O)nc3)c(-c3ccc(Cl)cc3)c2n1` [Compound 64, 5-[3-(4-chlorophenyl)-5-[(2-hydroxy-2-methyl-propyl)-methyl-amino]-7-[6-(trifluoromethyl)-3-pyridyl]pyrazolo[1,5-a]pyrimidin-2-yl]pyridine-2-carboxamide], the results for the IC50 in assay [1] and in assay [2] were 1.25 nM and 2.95 nM, respectively.

For the compound `CNC(=O)[C@H]1CCN1c1cc(N2CCC(C)(C(N)=O)CC2)n2nc(-c3ccccc3Cl)c(-c3ccc(Cl)cc3)c2n1` [Compound 65, 1-[2-(2-chlorophenyl)-3-(4-chlorophenyl)-5-[(2R)-2-(methylcarbamoyl)azetidin-1-yl]pyrazolo[1,5-a]pyrimidin-7-yl]-4-methyl-piperidine-4-carboxamide], the IC50 in assay [1] stood at 13.3 nM; in assay [2], 20.6 nM.

On to `CN(CCOCCO)c1cc(N2CCC(C)(C(N)=O)CC2)n2nc(-c3ccccc3Cl)c(-c3ccc(Cl)cc3)c2n1` [Compound 66, 1-[2-(2-chlorophenyl)-3-(4-chlorophenyl)-5-[2-(2-hydroxyethoxy)ethyl-methyl-amino]pyrazolo[1,5-a]pyrimidin-7-yl]-4-methyl-piperidine-4-carboxamide], for which the IC50 in assay [1] was 7.3 nM; in assay [2] it was 47.3 nM.

Regarding `CN(C[C@H](O)CO)c1cc(N2CCC(C)(C(N)=O)CC2)n2nc(-c3ccccc3Cl)c(-c3ccc(Cl)cc3)c2n1` [Compound 67, 1-[2-(2-chlorophenyl)-3-(4-chlorophenyl)-5-[[(2S)-2,3-dihydroxypropyl]-methyl-amino]pyrazolo[1,5-a]pyrimidin-7-yl]-4-methyl-piperidine-4-carboxamide], the IC50 turned out to be 1.96 nM in assay [1] and 14.5 nM in assay [2].

For the compound `C[C@@H](C(N)=O)N(C)c1cc(N2CCC(C)(C(N)=O)CC2)n2nc(-c3ccccc3Cl)c(-c3ccc(Cl)cc3)c2n1` [Compound 68, 1-[5-[[(1S)-2-amino-1-methyl-2-oxo-ethyl]-methyl-amino]-2-(2-chlorophenyl)-3-(4-chlorophenyl)pyrazolo[1,5-a]pyrimidin-7-yl]-4-methyl-piperidine-4-carboxamide], the IC50 in assay [1] was determined as 3.01 nM; in assay [2] it was 14.5 nM.

For `CCNC(=O)CN(C)c1cc(N2CC(OCC(N)=O)C2)n2nc(-c3ccccc3Cl)c(-c3ccc(Cl)cc3)c2n1` [Compound 69, 2-[[7-[3-(2-amino-2-oxo-ethoxy)azetidin-1-yl]-2-(2-chlorophenyl)-3-(4-chlorophenyl)pyrazolo[1,5-a]pyrimidin-5-yl]-methyl-amino]-N-ethyl-acetamide], the IC50 in assay [1] is 3910 nM; in assay [2], > 30000 nM.

For `C[C@@H](O)COc1cc(-c2ccc(C(F)(F)F)nc2)n2nc(-c3ccccc3Cl)c(-c3ccc(Cl)cc3)c2n1` [Compound 70(R)], the figures for the half-maximal inhibitory concentration (IC50) in assay [1] and in assay [2] were 1.11 nM and 2.78 nM, respectively.

With `C[C@H](O)COc1cc(-c2ccc(C(F)(F)F)nc2)n2nc(-c3ccccc3Cl)c(-c3ccc(Cl)cc3)c2n1` [Compound 70(S)], the values for the IC50 in assay [1] and in assay [2] were 1.71 nM and 8.27 nM, respectively.

Consider `C[C@H](CO)Oc1cc(-c2ccc(C(F)(F)F)nc2)n2nc(-c3ccccc3Cl)c(-c3ccc(Cl)cc3)c2n1` [Compound 71(R)], for which the IC50 in assay [1] is 3.08 nM; in assay [2], 12.3 nM.

On to `C[C@@H](CO)Oc1cc(-c2ccc(C(F)(F)F)nc2)n2nc(-c3ccccc3Cl)c(-c3ccc(Cl)cc3)c2n1` [Compound 71(S)], for which the values for the IC50 in assay [1] and in assay [2] were 1.37 nM and 4.07 nM, respectively.

Take `O[C@@H]1CCN(c2cc(-c3ccc(C(F)(F)F)nc3)n3nc(-c4ccccc4Cl)c(-c4ccc(Cl)cc4)c3n2)C1` [Compound 72(R)]: the IC50 was determined as 1.33 nM in assay [1] and 3.33 nM in assay [2].

Regarding `O[C@H]1CCN(c2cc(-c3ccc(C(F)(F)F)nc3)n3nc(-c4ccccc4Cl)c(-c4ccc(Cl)cc4)c3n2)C1` [Compound 72(S)], the IC50 in assay [1] worked out at 1.64 nM; in assay [2], 5.25 nM.
